Data on 46 substances can be found in patent publication US11214803B2, “Modulators of YAP1 expression” (Ionis Pharmaceuticals, Inc., priority 2019, dated 2022).

Strand notation (5' to 3'): a small letter for the sugar, then the base; units joined by * are phosphorothioate-linked, units joined directly phosphodiester-linked; [ ] holds rarer units or linkages, { } end groups; capitals alone tell only the bases. k = constrained ethyl (cEt); [5mC] = 5-methylcytosine; d = 2'-deoxy (DNA)

One data set concerns Yap1 mRNA. The experiment in a line: Antisense inhibition of human Yap1 in A-431 cells by cEt gapmers, single dose (Example 4, RTS4814). The data set is classed as cell-based. To be noted: Table 14; A-431 cells, 5,000 cells per well, free uptake, 2,000 nM, approximately 48 hours; RTS4814; normalized to RIBOGREEN; Yap1 mRNA relative to untreated control; * = targets amplicon region of primer probe set. The essentials: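 A-431 cells took up 3-10-3 cEt gapmers (16-mer, full phosphorothioate, 5-methylcytosines) by free uptake at 2,000 nM for about 48 h. Yap1 mRNA was quantified by qRT-PCR, normalized to total RNA (RIBOGREEN), and reported as % of untreated control.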
With “1075552 (kG*kA*kT*dT*dA*dT*dA*dA*d[5mC]*dA*dT*dG*d[5mC]*kT*kG*kT; antisense) [Compound 1075552]”, the “YAP1 (% UTC)” value came to 74 % UTC. On to “1076224 (kT*kA*kT*dA*dA*dA*d[5mC]*d[5mC]*dT*dT*dG*d[5mC]*dT*kA*k[5mC]*kA; antisense) [Compound 1076224]”, for which the “YAP1 (% UTC)” value turned out to be 67 % UTC. For the substance “1076416 (kA*k[5mC]*k[5mC]*dG*dA*dA*dA*dT*dG*dA*dT*dA*d[5mC]*kT*kG*kA; antisense) [Compound 1076416]”, the “YAP1 (% UTC)” value is given as 8 % UTC.

Consider “1075168 (antisense k[5mC]*kA*kT*d[5mC]*dA*dA*dA*dA*dT*dT*dT*d[5mC]*dA*k[5mC]*kG*kA) [Compound 1075168]”, for which the “YAP1 (% UTC)” value turned out to be 49 % UTC. As for “1075296 (antisense kA*kT*kT*dA*dT*dA*dA*dG*d[5mC]*dT*dG*dT*dG*kT*kT*kG) [Compound 1075296]”, the “YAP1 (% UTC)” value is listed as 18 % UTC.

Take “1075616 (kG*kT*kA*dA*dA*dA*d[5mC]*d[5mC]*dG*dA*dT*dT*dT*kT*kT*k[5mC]; antisense) [Compound 1075616]”: the “YAP1 (% UTC)” value was 46 % UTC.

“1075264 (antisense kG*kA*kA*dT*dA*dA*dT*dA*dT*dG*d[5mC]*dA*dG*kA*kA*k[5mC]) [Compound 1075264]”: the “YAP1 (% UTC)” value is 53 % UTC.

Staying with this data set, now noted: Table 15; A-431 cells, 5,000 cells per well, free uptake, 2,000 nM, approximately 48 hours; RTS4814; normalized to RIBOGREEN; Yap1 mRNA relative to untreated control; * = targets amplicon region of primer probe set.
“1074945 (antisense k[5mC]*kA*kA*dA*dA*d[5mC]*d[5mC]*d[5mC]*dT*dT*dT*dG*dG*kT*k[5mC]*kT) [Compound 1074945]”: the “YAP1 (% UTC)” value was determined as 74 % UTC. “1074593 (antisense kA*kG*kG*dA*dG*d[5mC]*dA*dA*dG*dT*d[5mC]*dT*dT*kG*kT*kA) [Compound 1074593]”: the “YAP1 (% UTC)” value is 6 % UTC.

On to “1074913 (antisense k[5mC]*kA*kT*d[5mC]*d[5mC]*d[5mC]*dG*dA*dG*dT*dG*dG*dG*k[5mC]*kT*kA) [Compound 1074913]”, for which the “YAP1 (% UTC)” value turned out to be 99 % UTC. Take “1076033 (k[5mC]*kA*kT*dT*dA*dG*dT*dA*dG*dG*dT*dA*dT*kT*kT*k[5mC]; antisense) [Compound 1076033]”: the “YAP1 (% UTC)” value amounted to 8 % UTC. Same read-out and setting: as for “1074753 (kT*kA*k[5mC]*dA*dT*dT*dA*dG*dG*dA*dA*d[5mC]*dA*kA*kG*kG; antisense) [Compound 1074753]”, the figure is 4 % UTC; as for “1076417 (k[5mC]*kT*kT*dT*dA*d[5mC]*dA*d[5mC]*d[5mC]*dG*dA*dA*dA*kT*kG*kA; antisense) [Compound 1076417]”, 42 % UTC. For “1075265 (antisense kT*k[5mC]*kT*dG*dA*dA*dT*dA*dA*dT*dA*dT*dG*k[5mC]*kA*kG) [Compound 1075265]”, the “YAP1 (% UTC)” value is recorded as 44 % UTC. “1074401 (antisense kT*k[5mC]*k[5mC]*dG*dG*dT*dG*d[5mC]*dA*dT*dG*dT*dG*kT*k[5mC]*kT) [Compound 1074401]”: the “YAP1 (% UTC)” value was found to be 18 % UTC. Regarding “1074785 (kA*k[5mC]*k[5mC]*dA*dT*dA*dA*dG*dT*dA*dG*dA*dT*k[5mC]*kT*kA; antisense) [Compound 1074785]”, the “YAP1 (% UTC)” value came to 10 % UTC. On the same count and under the same terms, next, “1076353 (kA*kT*kT*dA*dA*dA*d[5mC]*dA*dT*dT*d[5mC]*dG*dG*kA*kT*kT; antisense) [Compound 1076353]”: 30 % UTC; “1075873 (k[5mC]*kT*kT*dG*dA*dA*dT*dA*d[5mC]*dT*dA*d[5mC]*dA*k[5mC]*k[5mC]*kA; antisense) [Compound 1075873]”: 16 % UTC. The same measure, in the same setting: as for “1075809 (kT*kA*kG*d[5mC]*dA*dA*dT*dA*dG*dA*dG*dT*dA*kA*k[5mC]*k[5mC]; antisense) [Compound 1075809]”, the figure is 13 % UTC; as for “1074145 (antisense kA*kA*kG*d[5mC]*dG*dG*d[5mC]*dG*dA*d[5mC]*dG*dG*d[5mC]*kT*kG*k[5mC]) [Compound 1074145]”, 73 % UTC.

The data set is the same for the next values; noted with them: Table 16; A-431 cells, 5,000 cells per well, free uptake, 2,000 nM, approximately 48 hours; RTS4814; normalized to RIBOGREEN; Yap1 mRNA relative to untreated control cells.
For the substance “1075266 (antisense kT*kA*kT*dT*dA*dG*dG*dA*d[5mC]*dA*dA*dA*dG*kT*kA*k[5mC]) [Compound 1075266]”, the “YAP1 (% UTC)” value is 57 % UTC. Regarding “1074146 (antisense kG*kA*kA*dG*d[5mC]*dG*dG*d[5mC]*dG*dA*d[5mC]*dG*dG*k[5mC]*kT*kG) [Compound 1074146]”, the “YAP1 (% UTC)” value came to 91 % UTC. Same read-out and setting: next, “1075554 (kT*kT*kG*d[5mC]*dA*dA*dT*dA*dG*dT*d[5mC]*dA*d[5mC]*k[5mC]*k[5mC]*kA; antisense) [Compound 1075554]”: 56 % UTC; “1075042 (antisense kT*kT*kA*dA*dA*dA*dG*dG*dT*dT*dT*dG*dG*k[5mC]*kA*k[5mC]) [Compound 1075042]”: 17 % UTC.

In the case of “1074242 (antisense kA*kG*kA*dA*dG*dA*dT*dG*dT*d[5mC]*dT*dT*dT*kG*k[5mC]*k[5mC]) [Compound 1074242]”, the “YAP1 (% UTC)” value came out at 56 % UTC.

With “1075650 (kA*kT*kA*dT*dT*dA*d[5mC]*dA*dA*dT*d[5mC]*d[5mC]*d[5mC]*kA*kG*k[5mC]; antisense) [Compound 1075650]”, the “YAP1 (% UTC)” value was determined as 48 % UTC. On the same count and under the same terms, next, “1076002 (kA*kT*kT*dT*dA*dA*dT*dG*dG*d[5mC]*dT*dT*dG*k[5mC]*kA*kT; antisense) [Compound 1076002]”: 21 % UTC; “1075714 (kA*kA*kT*dT*dA*d[5mC]*dA*dA*dT*d[5mC]*dA*dA*d[5mC]*k[5mC]*kT*kT; antisense) [Compound 1075714]”: 42 % UTC; “1075778 (k[5mC]*kA*kT*dT*dT*dA*dT*dA*d[5mC]*d[5mC]*dA*dG*dG*k[5mC]*kA*k[5mC]; antisense) [Compound 1075778]”: 3 % UTC. Still for that read-out and setting: as for “1074850 (antisense kT*kT*kG*dT*dT*dA*dT*dG*dA*dT*dA*dG*dG*k[5mC]*kA*k[5mC]) [Compound 1074850]”, the figure is 5 % UTC; as for “1076290 (k[5mC]*kT*k[5mC]*d[5mC]*dA*dA*d[5mC]*dG*dG*dA*d[5mC]*dA*dA*k[5mC]*kT*kT; antisense) [Compound 1076290]”, 28 % UTC.

The data set is the same for the next values; noted with them: Table 17; A-431 cells, 5,000 cells per well, free uptake, 2,000 nM, approximately 48 hours; RTS4814; normalized to RIBOGREEN; Yap1 mRNA relative to untreated control cells.
As for “1076067 (kG*k[5mC]*kA*dT*dA*dT*dA*dA*dG*dA*dT*dG*dT*kT*kT*kG; antisense) [Compound 1076067]”, the “YAP1 (% UTC)” value is on record as 4 % UTC.

As for “1075939 (k[5mC]*kT*kT*dG*dA*dA*dT*dA*dT*dA*dT*dG*dG*kG*kT*kT; antisense) [Compound 1075939]”, the “YAP1 (% UTC)” value was 6 % UTC. The same measure, in the same setting: as for “1076515 (antisense k[5mC]*kT*kG*d[5mC]*dA*dA*dG*dA*dA*dT*dA*d[5mC]*dT*kT*kT*kA) [Compound 1076515]”, the figure is 30 % UTC; as for “1075459 (antisense kA*kA*k[5mC]*d[5mC]*dA*dA*dG*dG*dA*dT*dA*dG*dT*k[5mC]*kA*kT) [Compound 1075459]”, 37 % UTC.

For the substance “1075043 (antisense k[5mC]*k[5mC]*k[5mC]*d[5mC]*dA*dA*dA*dA*dG*d[5mC]*d[5mC]*d[5mC]*dT*kA*k[5mC]*kT) [Compound 1075043]”, the “YAP1 (% UTC)” value was 73 % UTC.

The same data set, now with this note: Yap1 mRNA remaining as percent of untreated control; 3-10-3 cEt gapmers; A-431 cells; Table 36.
Take “1075286 (antisense kA*kT*kT*dA*d[5mC]*dG*dG*dA*d[5mC]*dA*dG*dA*dA*kG*kT*kG) [compound 1075286]”: the “YAP1 (% UTC)” value is recorded as 48 % UTC. On to “1076566 (kA*kA*kT*dT*dA*d[5mC]*dA*dG*dT*dG*dT*d[5mC]*dT*k[5mC]*kA*k[5mC]; antisense) [compound 1076566]”, for which the “YAP1 (% UTC)” value is 63 % UTC. Same read-out and setting: next, “1075062 (antisense k[5mC]*kT*kT*dT*dA*dA*d[5mC]*d[5mC]*dT*dT*dA*dT*dA*k[5mC]*kT*kT) [compound 1075062]”: 58 % UTC; “1075798 (kA*kT*kT*dT*dA*dG*dA*dT*dA*dG*dT*dT*dA*k[5mC]*kT*kG; antisense) [compound 1075798]”: 21 % UTC. The same measure, in the same setting: as for “1075094 (kG*kA*kT*dA*dA*dA*dT*dG*dT*dA*dA*d[5mC]*dT*kA*kG*k[5mC]; antisense) [compound 1075094]”, the figure is 10 % UTC.

Still in this data set, the particulars now being: Yap1 mRNA remaining as percent of untreated control; 3-10-3 cEt gapmers; A-431 cells; Table 37.
With “1075511 (k[5mC]*kA*kA*dT*dA*dT*dT*dA*dT*d[5mC]*dT*dG*dA*kG*k[5mC]*kT; antisense) [compound 1075511]”, the “YAP1 (% UTC)” value worked out at 106 % UTC. Still for that read-out and setting: next, “1075223 (kG*kT*kT*dA*dA*dA*dA*dG*dT*dG*dA*dA*d[5mC]*k[5mC]*k[5mC]*kA; antisense) [compound 1075223]”: 19 % UTC. On the same count and under the same terms, as for “1075831 (kT*kA*kT*dT*dA*dG*d[5mC]*d[5mC]*dT*dT*d[5mC]*dT*dA*kA*k[5mC]*k[5mC]; antisense) [compound 1075831]”, the figure is 59 % UTC.

The data set is the same for the next values; noted with them: table after Table 37, headed TABLE 32 (gapmers targeting SEQ ID NO.: 3); A-431 cells, free uptake, 2,000 nM, approximately 48 hours, RTS4814.
Turning to “1074883 (kG*kG*k[5mC]*dT*dA*dA*d[5mC]*dT*d[5mC]*d[5mC]*dT*dG*d[5mC]*k[5mC]*kG*kA; antisense) [compound 1074883]”, the “YAP1 (% UTC)” value stood at 107 % UTC. The same measure, in the same setting: as for “1074880 (k[5mC]*kT*k[5mC]*d[5mC]*dT*dG*d[5mC]*d[5mC]*dG*dA*dA*dG*d[5mC]*kA*kG*kT; antisense) [compound 1074880]”, the figure is 101 % UTC.
